Assay results as given in ChEMBL document CHEMBL1201862, “PubChem BioAssay data set” (2004).
Calls of active or inactive are those of the source.

What was measured:
Steroidogenic factor 1 = Steroidogenic factor 1 (Homo sapiens, UniProt Q13285); assay: Counterscreen for inverse agonists of the liver receptor homolog-1 (LRH-1; NR5A2): Luminescence-based cell-based high throughput dose response assay to identify inverse agonists of the Steroidogenic Factor 1 Nuclear Receptor (SF1; NR5A1).; type: functional
Sequence of Steroidogenic factor 1 (Q13285 whole entry): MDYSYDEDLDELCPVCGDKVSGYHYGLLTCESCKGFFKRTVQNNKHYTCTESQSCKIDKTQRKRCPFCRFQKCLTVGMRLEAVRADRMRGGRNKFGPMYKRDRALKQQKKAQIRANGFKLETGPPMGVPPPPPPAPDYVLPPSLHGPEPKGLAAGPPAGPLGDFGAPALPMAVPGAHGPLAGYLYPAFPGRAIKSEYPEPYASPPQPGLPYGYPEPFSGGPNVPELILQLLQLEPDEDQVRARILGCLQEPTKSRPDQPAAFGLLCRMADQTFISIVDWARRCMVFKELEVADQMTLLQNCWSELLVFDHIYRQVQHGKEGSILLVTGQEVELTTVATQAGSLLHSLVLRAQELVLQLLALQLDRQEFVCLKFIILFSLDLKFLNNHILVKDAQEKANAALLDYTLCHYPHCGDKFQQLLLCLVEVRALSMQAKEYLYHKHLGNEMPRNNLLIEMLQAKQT

[1] = target: Nuclear receptor subfamily 5 group A member 2 (Homo sapiens, UniProt O00482); type: functional, cell-based;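 also: HEK293T cells transfected with LRH-1 and a StAR promoter luciferase reporter; potency for inhibitors that lower LRH-1 driven reporter light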
Sequence of Nuclear receptor subfamily 5 group A member 2 (O00482 whole entry): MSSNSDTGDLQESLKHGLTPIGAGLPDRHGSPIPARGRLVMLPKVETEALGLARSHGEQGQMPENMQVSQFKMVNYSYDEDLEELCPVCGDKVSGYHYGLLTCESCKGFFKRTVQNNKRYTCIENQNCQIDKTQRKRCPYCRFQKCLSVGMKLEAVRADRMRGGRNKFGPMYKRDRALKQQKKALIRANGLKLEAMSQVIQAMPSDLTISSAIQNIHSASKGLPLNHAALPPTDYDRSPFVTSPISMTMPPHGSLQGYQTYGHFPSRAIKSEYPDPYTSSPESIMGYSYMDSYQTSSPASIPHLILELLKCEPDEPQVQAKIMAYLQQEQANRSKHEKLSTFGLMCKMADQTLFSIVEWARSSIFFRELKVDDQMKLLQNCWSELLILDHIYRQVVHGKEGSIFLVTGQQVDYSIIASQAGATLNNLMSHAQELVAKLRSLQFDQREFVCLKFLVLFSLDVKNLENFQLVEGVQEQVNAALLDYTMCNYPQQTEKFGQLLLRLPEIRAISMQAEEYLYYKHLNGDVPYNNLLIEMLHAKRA

[2] = nonselective StAR promoter luciferase inhibitors – cell-based, luminescence, luciferase reporter, counter-screen for LRH-1 inverse agonist project, dose response (AID 651969); type: functional
[3] = target: T1, Short transient receptor potential channel 4 (Mus musculus, UniProt Q9QUQ5); assay: block of DAMGO-driven TRPC4 calcium entry – cell-based, HEK293 TRPC4/mu-opioid, Fluo-4 calcium, dose response (AID 434942); type: functional;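 also: potency of inhibitors blocking the TRPC4 calcium response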
T1 sequence (Q9QUQ5 whole entry): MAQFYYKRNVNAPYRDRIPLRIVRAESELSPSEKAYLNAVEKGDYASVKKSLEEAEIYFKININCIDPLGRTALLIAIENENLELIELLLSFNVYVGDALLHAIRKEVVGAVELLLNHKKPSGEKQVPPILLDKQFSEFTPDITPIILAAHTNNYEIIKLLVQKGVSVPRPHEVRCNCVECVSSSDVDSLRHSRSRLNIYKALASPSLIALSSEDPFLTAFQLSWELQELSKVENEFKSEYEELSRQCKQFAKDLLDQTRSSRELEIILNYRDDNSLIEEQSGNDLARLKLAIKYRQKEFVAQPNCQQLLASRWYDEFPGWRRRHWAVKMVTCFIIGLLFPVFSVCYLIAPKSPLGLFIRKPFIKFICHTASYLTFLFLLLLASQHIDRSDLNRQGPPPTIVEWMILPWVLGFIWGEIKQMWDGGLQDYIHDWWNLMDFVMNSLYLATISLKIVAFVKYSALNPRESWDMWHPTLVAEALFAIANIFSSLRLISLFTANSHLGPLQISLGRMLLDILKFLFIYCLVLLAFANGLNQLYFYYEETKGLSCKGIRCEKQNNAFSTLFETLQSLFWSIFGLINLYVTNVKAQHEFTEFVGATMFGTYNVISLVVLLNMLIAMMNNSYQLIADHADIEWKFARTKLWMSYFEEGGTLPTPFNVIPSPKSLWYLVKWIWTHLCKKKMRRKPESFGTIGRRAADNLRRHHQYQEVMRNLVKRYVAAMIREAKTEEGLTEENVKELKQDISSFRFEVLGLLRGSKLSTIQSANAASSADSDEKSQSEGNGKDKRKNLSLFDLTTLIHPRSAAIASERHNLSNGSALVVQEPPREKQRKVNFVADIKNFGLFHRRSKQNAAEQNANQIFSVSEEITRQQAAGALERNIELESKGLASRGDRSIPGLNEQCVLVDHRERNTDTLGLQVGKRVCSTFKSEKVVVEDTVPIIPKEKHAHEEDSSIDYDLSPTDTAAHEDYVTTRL

[4] = blockers of CRF-binding protein–CRF-R2 complex – cell-based, uHTS hits, 384-well, dose response (AID 651639); type: functional, Homo sapiens; conditions: read-out: IC50_Mean
[5] = target: T2, Corticotropin-releasing factor receptor 2/Corticotropin-releasing factor-binding protein (Homo sapiens, UniProt P24387+Q13324); assay: Dose Response confirmation of uHTS hits for small molecule antagonists of the CRF-binding protein and CRF-R2 receptor complex.; type: functional; conditions: read-out: IC50_Mean
T2 sequence (Q13324 whole entry): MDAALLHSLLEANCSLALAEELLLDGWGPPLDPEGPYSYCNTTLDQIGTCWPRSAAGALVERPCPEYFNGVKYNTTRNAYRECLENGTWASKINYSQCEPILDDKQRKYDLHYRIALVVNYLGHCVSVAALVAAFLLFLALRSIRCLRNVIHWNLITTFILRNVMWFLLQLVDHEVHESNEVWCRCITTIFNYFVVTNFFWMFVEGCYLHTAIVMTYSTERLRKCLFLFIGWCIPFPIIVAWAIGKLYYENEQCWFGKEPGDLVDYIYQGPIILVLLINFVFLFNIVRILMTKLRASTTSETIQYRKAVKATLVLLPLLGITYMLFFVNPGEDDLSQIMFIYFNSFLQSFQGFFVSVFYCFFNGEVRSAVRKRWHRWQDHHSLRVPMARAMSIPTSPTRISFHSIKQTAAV
T2 sequence (P24387 whole entry): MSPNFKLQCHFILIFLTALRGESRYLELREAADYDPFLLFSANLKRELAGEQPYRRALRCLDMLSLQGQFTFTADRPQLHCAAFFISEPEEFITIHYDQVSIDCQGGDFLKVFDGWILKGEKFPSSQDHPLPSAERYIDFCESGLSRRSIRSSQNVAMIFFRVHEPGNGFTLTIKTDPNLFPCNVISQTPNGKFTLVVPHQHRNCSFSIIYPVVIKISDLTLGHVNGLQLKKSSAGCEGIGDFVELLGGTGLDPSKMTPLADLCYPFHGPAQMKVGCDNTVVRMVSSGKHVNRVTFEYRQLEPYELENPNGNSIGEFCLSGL

[6] = target: T2, Corticotropin-releasing factor receptor 2/Corticotropin-releasing factor-binding protein; assay: activators of CRF receptor 2 with binding protein – uHTS hits, confirmation (AID 602473); type: functional; conditions: read-out: EC50_Mean
[7] = target: T3, Low molecular weight phosphotyrosine protein phosphatase (Homo sapiens, UniProt P24666); type: functional; conditions: read-out: IC50_Mean
T3 sequence (P24666 whole entry): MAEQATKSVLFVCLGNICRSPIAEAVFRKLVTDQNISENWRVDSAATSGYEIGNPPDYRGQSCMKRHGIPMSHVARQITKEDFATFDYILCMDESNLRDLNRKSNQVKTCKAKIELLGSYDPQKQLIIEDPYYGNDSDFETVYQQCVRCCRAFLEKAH

[8] = target: T3, Low molecular weight phosphotyrosine protein phosphatase; type: functional; conditions: read-out: IC50_Mean; remark: listed apart in the source
[9] = target: Photoreceptor-specific nuclear receptor (Homo sapiens, UniProt Q9Y5X4); type: functional, cell-based;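 also: CHO-S cells with Gal4-NCOR and VP16-NR2E3 two-hybrid luciferase reporter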
Sequence of Photoreceptor-specific nuclear receptor (Q9Y5X4 whole entry, the tested form may be a part): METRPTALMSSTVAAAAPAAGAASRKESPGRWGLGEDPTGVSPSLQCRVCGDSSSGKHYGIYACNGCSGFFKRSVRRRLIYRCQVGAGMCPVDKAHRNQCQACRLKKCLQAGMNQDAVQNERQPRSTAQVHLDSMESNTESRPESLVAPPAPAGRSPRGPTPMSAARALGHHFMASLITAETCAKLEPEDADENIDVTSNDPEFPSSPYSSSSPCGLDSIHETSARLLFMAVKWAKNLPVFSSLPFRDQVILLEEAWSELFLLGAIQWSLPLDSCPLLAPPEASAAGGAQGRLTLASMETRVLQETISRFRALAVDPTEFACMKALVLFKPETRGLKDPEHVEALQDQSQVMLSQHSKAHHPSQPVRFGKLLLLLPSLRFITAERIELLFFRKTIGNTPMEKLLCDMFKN

[10] = target: 5-hydroxytryptamine receptor 2A (Mus musculus, UniProt P35363); type: functional, cell-based;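 also: CHO-K1 cells with tagged receptor and beta-arrestin; agonist potency measured as compound-induced activation of the receptor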
Sequence of 5-hydroxytryptamine receptor 2A (P35363 whole entry): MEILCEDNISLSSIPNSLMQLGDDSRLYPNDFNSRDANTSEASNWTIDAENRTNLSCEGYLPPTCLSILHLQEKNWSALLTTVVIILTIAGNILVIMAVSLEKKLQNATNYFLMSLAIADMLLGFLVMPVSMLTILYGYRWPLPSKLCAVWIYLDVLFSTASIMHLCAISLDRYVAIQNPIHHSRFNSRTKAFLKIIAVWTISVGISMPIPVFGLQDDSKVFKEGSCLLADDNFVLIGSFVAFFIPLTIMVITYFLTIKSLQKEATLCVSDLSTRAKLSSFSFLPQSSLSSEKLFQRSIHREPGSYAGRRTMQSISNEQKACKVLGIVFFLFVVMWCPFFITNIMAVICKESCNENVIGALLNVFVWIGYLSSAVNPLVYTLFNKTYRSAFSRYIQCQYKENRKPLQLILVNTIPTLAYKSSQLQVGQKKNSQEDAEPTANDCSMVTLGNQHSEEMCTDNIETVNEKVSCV

[11] = fluconazole-exposed Candida albicans growth modulators – fluorescence, retest, confirmation (AID 2467); type: functional, cell-based
[12] = target: ATP-dependent molecular chaperone HSP82 (Candida albicans (strain WO-1) (Yeast), UniProt C4YTQ8); assay: steroid-induced GRE reporter decrease in yeast – S. cerevisiae, luminescence, Hsp90 inhibitor project, dose response (AID 2400); type: functional, cell-based;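 also: beta-galactosidase luminescence from glucocorticoid response element reporter as proxy for Hsp90 function; inhibitor potency where signal loss means Hsp90 inhibition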
Sequence of ATP-dependent molecular chaperone HSP82 (C4YTQ8 whole entry): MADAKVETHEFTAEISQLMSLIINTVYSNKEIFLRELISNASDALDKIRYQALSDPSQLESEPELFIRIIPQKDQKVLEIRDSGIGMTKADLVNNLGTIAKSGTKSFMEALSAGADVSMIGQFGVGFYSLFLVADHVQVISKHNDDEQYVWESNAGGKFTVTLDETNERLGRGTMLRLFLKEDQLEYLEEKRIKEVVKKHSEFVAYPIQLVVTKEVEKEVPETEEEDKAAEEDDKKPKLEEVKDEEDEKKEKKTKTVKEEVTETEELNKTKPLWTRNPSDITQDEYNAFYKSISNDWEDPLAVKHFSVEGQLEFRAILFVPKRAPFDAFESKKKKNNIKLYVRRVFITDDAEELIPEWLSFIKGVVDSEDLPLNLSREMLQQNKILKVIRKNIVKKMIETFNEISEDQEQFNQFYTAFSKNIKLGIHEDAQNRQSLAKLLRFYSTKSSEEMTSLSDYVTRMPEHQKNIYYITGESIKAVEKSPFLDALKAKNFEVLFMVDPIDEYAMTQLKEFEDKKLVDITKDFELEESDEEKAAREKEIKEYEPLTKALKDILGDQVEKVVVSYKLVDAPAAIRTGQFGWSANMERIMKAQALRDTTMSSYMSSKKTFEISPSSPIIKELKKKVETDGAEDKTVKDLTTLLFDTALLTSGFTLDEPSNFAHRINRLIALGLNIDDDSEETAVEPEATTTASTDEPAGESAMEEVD

Mu-type opioid receptor = Mu-type opioid receptor (Homo sapiens, UniProt P35372); type: functional, cell-based;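 also: U2OS cells with beta-arrestin recruitment to OPRM1 by beta-gal complementation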
Sequence of Mu-type opioid receptor (P35372 whole entry): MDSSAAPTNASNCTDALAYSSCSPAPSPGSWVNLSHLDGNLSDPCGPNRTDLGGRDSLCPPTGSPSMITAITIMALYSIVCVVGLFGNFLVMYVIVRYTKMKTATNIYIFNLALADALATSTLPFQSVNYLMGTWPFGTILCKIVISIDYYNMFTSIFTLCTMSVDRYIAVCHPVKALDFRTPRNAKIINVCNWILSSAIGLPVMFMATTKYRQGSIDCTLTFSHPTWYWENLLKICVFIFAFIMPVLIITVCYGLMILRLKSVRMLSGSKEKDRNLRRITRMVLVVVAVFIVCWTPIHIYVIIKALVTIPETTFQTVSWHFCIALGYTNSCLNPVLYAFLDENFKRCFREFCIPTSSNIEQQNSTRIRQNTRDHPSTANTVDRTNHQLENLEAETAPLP

[13] = target: T4, Serine/threonine-protein phosphatase (Candida dubliniensis (strain CD36 / CBS 7987 / NCPF 3949 / NRRLY-17841) (Yeast), UniProt B9W6M3); assay: blockers of CaCl2-induced CDRE-lacZ signaling – S. cerevisiae, luminescence, secondary, dose response (AID 2388); type: functional, cell-based;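 also: yeast reporter cells carrying a calcineurin-responsive lacZ construct stimulated with calcium chloride; luminescent beta-galactosidase reporter signal in whole cells rather than isolated phosphatase activity; potency for inhibition where a drop in reporter signal means calcineurin blockade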
T4 sequence (B9W6M3 whole entry): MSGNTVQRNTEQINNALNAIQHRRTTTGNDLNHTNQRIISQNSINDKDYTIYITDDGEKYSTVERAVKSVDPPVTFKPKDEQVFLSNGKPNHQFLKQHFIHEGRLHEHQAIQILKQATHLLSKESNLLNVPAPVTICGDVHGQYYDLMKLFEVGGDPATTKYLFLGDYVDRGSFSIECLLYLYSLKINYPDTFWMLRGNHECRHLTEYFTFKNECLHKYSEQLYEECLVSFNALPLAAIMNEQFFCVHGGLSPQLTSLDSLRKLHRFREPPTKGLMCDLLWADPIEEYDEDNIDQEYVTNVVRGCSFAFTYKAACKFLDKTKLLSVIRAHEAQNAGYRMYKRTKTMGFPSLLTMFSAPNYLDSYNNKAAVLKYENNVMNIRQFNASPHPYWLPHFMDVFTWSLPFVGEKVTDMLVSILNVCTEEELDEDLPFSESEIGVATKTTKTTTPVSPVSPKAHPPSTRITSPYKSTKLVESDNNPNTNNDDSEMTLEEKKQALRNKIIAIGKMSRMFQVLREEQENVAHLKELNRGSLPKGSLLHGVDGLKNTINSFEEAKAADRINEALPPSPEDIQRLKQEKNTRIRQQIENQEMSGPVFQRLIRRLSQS

[14] = NIH-3T3 fibroblast cytotoxicity, dose response, cytotoxicity control, cell-based, fluorescence, Alamar Blue, secondary assay (AID 2327); type: functional;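 also: NIH-3T3 mouse fibroblasts cultured with fluconazole at 8 µg/mL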
[15] = target: Heat shock protein HSP 90-alpha (Homo sapiens, UniProt P07900); type: functional, organism-based
[16] = target: T5, ATP-dependent translocase ABCB1 (Homo sapiens, UniProt P08183); assay: P-gp JC-1 efflux blockade concentration-response – Jurkat-DNR cells, flow cytometry, set 2, dose response (AID 504569); type: functional; conditions: read-out: EC50_MICROM_;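 also: potency of pump inhibitors that raise cellular JC-1 green fluorescence up to the nicardipine level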
T5 sequence (P08183 whole entry): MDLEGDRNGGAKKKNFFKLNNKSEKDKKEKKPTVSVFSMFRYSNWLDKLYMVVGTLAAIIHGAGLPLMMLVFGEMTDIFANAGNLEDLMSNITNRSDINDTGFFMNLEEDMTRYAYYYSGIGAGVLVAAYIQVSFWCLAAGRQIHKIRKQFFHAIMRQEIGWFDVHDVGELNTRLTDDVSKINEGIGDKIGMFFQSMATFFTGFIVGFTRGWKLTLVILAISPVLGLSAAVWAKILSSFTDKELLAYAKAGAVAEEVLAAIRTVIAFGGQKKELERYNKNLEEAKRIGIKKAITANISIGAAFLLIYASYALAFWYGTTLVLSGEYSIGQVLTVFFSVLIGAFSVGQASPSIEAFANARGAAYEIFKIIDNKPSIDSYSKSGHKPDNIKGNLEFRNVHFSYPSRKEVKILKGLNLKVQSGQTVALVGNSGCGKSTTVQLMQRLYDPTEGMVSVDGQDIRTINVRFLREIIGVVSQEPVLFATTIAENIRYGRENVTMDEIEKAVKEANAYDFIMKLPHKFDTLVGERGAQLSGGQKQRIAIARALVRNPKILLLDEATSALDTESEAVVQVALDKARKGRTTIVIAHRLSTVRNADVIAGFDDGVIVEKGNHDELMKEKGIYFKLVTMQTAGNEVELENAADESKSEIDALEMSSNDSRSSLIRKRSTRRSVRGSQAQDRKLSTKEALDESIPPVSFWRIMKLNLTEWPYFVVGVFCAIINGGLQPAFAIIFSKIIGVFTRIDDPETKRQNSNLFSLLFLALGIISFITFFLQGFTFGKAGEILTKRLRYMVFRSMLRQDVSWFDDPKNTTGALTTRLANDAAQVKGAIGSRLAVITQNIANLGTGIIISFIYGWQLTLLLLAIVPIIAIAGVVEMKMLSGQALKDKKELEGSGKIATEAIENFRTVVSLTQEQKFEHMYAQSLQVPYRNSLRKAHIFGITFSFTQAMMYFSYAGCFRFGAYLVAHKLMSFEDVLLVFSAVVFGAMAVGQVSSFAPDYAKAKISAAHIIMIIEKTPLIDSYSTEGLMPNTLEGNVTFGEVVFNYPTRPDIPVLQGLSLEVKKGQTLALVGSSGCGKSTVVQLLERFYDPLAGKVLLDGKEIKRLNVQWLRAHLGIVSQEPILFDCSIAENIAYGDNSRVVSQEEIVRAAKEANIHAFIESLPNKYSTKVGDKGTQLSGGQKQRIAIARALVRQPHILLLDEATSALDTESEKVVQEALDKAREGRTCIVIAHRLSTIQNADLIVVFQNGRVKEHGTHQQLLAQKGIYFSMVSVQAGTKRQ

[17] = target: T5, ATP-dependent translocase ABCB1; assay: inhibition of BCRP-mediated JC-1 efflux – Ig-MXP3 cells, flow cytometry, set 2, dose response (AID 504566); type: functional; conditions: read-out: EC50_MICROM_;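 also: flow cytometry median green fluorescence of retained JC-1 dye; potency of efflux pump inhibition measured as rising substrate retention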
[18] = target: T6, Rac GTPase-activating protein 1 (Homo sapiens, UniProt Q9H0H5); assay: blockers of MgcRacGAP-driven Rac1 GTP hydrolysis – biochemical, ADP Hunter fluorescence, primary and confirmatory, confirmation (AID 624330); type: functional
T6 sequence (Q9H0H5 whole entry): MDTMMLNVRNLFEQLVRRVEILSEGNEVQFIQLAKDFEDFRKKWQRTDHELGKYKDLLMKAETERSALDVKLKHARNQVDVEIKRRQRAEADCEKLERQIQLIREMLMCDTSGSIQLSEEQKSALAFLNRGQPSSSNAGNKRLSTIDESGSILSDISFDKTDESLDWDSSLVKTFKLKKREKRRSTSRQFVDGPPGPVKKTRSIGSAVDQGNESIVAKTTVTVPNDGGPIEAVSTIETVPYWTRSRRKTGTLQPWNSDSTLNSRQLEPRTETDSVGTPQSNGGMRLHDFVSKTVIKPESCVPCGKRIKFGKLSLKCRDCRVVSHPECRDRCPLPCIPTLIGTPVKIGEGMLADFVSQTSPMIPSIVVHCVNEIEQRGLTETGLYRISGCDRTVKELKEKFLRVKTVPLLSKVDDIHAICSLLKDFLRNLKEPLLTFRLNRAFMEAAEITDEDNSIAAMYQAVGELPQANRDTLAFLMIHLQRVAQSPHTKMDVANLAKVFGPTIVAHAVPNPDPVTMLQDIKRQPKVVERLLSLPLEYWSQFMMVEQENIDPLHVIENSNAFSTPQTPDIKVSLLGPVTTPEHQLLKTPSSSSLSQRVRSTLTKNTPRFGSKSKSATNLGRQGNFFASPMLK

Streptococcus = assay: GAS UMAA2166 growth inhibition – luminescence, BacTiterGlo, counter-screen for streptokinase expression inhibitor project, dose response (AID 1915); type: functional, organism-based;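 also: potency for reduction of bacterial viability or growth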
[19] = system: Streptococcus sp. 'group A'; assay: Streptococcus pyogenes SK(-)GAS viability under kanamycin – luminescence, BacTiterGlo, confirmation, counter-screen for streptokinase expression inhibitor project, dose response (AID 1900); type: functional, organism-based
INS1 = assay: INS-1E survival protection against cytokine death – cell-based, luminescence, retest, dose response (AID 449756); type: functional; conditions: Rattus norvegicus;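 also: cell death triggered by IL-1 beta plus TNF-alpha plus IFN-gamma mixture; protective hits raise ATP signal compared with cytokine alone wells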

O=C(CSc1nncc(O)n1)Nc1cccc([N+](=O)[O-])c1
IC50 (Steroidogenic factor 1): 3.98 µM (active)
IC50 [1]: 3.98 µM (active)
IC50 [2]: 13.7 µM (inactive)

COc1ccc(/C=C2\SC(=S)N(C(Cc3ccccc3)C(=O)O)C2=O)cc1 (stereo not drawn)
EC50 [3]: 4.73 µM (active)
IC50 [4]: > 20 µM (inactive)
IC50 [5]: 0.545 µM (active)
EC50 [6]: 34.8 µM (active)

CC(=O)Nc1ncc(Cc2cc(Cl)ccc2Cl)s1
IC50 (Steroidogenic factor 1): 2.14 µM (active)
IC50 [1]: 1.33 µM (active)
IC50 [2]: 35.9 µM (inactive)

CCC(C)Nc1nc(-c2ccc3c(c2)NC(=O)CO3)cs1 (stereo not drawn)
IC50 [7]: 63.3 µM (inactive)
IC50 [8]: 10.5 µM (active)

Cc1ccc(NC(=O)CNC(=O)c2cccc(C)c2)nc1
IC50 [9]: 3.75 µM (active)

O=S(=O)(NC1CCCC1)c1ccc(S(=O)(=O)N2CCc3ccccc32)cc1
IC50 [9]: 2.47 µM (active)

COc1cccc(-c2nc(NC(C)C)c3ccccc3n2)c1O
EC50 [10]: 8.51 µM (active)
EC50 [11]: 4.42 µM (active)
EC50 [12]: 54.5 µM (active)
EC50 (Mu-type opioid receptor): 92.5 µM (inactive)
EC50 [13]: > 180 µM (inactive)
EC50 [14]: > 160 µM (inactive)

Cc1cc(N2CCN(C(=O)c3ccco3)CC2)n2nc(C)c(-c3ccccc3)c2n1
AC50 [15]: 7.93 µM (active)
EC50 [16]: 3.25 µM (inactive)
EC50 [17]: 7.22 µM (active)

Cc1cccc(-c2nc(NCCCN3CCOCC3)c3ccccc3n2)c1
IC50 [7]: 7.12 µM (active)
IC50 [8]: 22.6 µM (inactive)

COc1ccc(C)cc1NCc1cccc(OC)c1OC
IC50 [4]: > 20 µM (inactive)
IC50 [5]: 39.6 µM (active)
IC50 [18]: 41.7 µM (active)
EC50 [6]: > 53 µM (inactive)

Cc1cc(N/N=C/c2c(O)ccc3ccccc23)nc(-c2ccccc2O)n1
EC50 (Streptococcus): 0.425 µM (active)
EC50 [19]: 0.235 µM (active)
EC50 [11]: 2.07 µM (active)
AC50 (INS1): 1.69 µM (active)
EC50 [12]: 38.8 µM (active)
EC50 [13]: > 180 µM (inactive)
EC50 [14]: > 160 µM (inactive)

COc1ccc(C(=O)N2CCN(c3cc(-c4ccccc4)nc4cc(-c5cccc(Cl)c5)nn34)CC2)cc1
EC50 [16]: 3.04 µM (active)
EC50 [17]: 2.04 µM (active)
